According to ChEMBL document CHEMBL5465560, “Selectivity Literature for EUbOPEN Chemogenomic Library” (2024):
pIC50: −log10 of the molar value.

Legend:
[1] = target: Rho-associated protein kinase 1 (Homo sapiens) (UniProt Q13464); assay: Selectivity interaction (KinomeScan (DiscoverX)) EUB0000695a ROCK1; details: at 100 nM
[2] = target: T1, MAP/microtubule affinity-regulating kinase 4 (Homo sapiens) (UniProt Q96L34); assay: Selectivity interaction (KinomeScan (DiscoverX)) EUB0001079a MARK4; details: at 1 µM
T1 sequence (whole entry): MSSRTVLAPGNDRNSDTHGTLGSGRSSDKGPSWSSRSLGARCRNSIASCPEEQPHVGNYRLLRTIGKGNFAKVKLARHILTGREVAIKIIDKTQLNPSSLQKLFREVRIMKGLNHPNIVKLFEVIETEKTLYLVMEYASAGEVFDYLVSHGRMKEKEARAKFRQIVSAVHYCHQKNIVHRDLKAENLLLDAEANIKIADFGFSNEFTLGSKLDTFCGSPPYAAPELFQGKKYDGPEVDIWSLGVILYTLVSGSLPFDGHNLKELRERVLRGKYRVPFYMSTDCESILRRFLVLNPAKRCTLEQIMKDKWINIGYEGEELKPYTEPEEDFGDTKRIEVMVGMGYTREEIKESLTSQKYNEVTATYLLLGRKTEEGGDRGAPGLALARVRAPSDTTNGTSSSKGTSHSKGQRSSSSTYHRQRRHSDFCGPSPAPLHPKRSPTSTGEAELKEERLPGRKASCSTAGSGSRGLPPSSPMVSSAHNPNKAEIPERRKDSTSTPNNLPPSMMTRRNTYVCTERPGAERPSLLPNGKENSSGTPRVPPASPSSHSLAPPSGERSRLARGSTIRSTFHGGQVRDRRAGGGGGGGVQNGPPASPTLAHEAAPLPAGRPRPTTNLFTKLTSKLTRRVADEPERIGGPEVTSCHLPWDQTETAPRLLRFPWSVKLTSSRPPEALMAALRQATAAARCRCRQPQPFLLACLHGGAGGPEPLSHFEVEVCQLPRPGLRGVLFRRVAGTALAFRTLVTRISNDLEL

[3] = target: Phosphatidylinositol 4-kinase beta (Homo sapiens, UniProt Q9UBF8); assay: Selectivity interaction (Enzyme panel (AstraZeneca, AlphaScreen, functional assay)) EUB0000621a PI4KB
Phosphatidylinositol 4-kinase beta, sequence (Q9UBF8 whole entry): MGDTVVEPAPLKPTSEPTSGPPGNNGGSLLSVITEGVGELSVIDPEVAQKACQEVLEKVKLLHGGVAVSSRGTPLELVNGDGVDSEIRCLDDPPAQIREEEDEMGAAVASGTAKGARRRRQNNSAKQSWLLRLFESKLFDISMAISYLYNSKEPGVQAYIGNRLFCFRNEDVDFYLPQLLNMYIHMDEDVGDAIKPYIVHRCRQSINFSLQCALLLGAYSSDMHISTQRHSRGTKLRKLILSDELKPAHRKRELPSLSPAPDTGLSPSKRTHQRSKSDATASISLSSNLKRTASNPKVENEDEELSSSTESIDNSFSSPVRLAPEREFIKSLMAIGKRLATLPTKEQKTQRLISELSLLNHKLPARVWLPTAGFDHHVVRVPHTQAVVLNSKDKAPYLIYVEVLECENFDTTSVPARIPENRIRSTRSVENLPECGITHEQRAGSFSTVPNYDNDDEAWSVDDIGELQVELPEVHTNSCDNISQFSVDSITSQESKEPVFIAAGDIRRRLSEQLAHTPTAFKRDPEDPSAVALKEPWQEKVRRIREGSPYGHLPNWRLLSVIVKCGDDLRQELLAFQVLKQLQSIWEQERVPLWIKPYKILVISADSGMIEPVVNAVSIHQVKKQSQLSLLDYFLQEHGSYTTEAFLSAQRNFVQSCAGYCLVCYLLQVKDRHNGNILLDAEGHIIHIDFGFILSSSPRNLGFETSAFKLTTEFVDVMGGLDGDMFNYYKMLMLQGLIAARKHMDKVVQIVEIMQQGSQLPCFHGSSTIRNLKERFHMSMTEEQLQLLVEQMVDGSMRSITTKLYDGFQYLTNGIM

[4] = target: T2, Hormonally up-regulated neu tumor-associated kinase (Homo sapiens) (UniProt P57058); assay: Selectivity interaction (KinomeScan (DiscoverX)) EUB0001049a HUNK; details: at 1 µM
T2 sequence (whole entry): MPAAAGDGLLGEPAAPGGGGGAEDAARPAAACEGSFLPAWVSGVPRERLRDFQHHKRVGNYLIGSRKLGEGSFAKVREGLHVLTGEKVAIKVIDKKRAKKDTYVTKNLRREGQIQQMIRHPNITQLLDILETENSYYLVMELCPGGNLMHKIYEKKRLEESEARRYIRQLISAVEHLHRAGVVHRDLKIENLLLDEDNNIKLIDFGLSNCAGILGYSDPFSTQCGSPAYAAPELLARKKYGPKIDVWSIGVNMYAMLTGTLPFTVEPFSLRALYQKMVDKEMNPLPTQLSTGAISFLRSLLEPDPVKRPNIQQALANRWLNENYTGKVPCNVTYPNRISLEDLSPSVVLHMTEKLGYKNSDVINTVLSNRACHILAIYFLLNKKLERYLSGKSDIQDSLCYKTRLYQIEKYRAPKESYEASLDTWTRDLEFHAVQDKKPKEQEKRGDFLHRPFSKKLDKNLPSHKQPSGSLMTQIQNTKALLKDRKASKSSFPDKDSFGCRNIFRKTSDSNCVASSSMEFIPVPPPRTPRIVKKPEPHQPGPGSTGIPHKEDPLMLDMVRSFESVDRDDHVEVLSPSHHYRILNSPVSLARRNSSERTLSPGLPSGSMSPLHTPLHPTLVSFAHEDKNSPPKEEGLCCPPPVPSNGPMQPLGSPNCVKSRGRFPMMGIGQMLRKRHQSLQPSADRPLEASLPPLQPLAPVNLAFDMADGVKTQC

[5] = target: Hepatocyte growth factor receptor (Homo sapiens, UniProt P08581); assay: Selectivity interaction (Kinase panel (Enzyme activity assay)) EUB0000612a MET
Hepatocyte growth factor receptor, sequence (P08581 whole entry): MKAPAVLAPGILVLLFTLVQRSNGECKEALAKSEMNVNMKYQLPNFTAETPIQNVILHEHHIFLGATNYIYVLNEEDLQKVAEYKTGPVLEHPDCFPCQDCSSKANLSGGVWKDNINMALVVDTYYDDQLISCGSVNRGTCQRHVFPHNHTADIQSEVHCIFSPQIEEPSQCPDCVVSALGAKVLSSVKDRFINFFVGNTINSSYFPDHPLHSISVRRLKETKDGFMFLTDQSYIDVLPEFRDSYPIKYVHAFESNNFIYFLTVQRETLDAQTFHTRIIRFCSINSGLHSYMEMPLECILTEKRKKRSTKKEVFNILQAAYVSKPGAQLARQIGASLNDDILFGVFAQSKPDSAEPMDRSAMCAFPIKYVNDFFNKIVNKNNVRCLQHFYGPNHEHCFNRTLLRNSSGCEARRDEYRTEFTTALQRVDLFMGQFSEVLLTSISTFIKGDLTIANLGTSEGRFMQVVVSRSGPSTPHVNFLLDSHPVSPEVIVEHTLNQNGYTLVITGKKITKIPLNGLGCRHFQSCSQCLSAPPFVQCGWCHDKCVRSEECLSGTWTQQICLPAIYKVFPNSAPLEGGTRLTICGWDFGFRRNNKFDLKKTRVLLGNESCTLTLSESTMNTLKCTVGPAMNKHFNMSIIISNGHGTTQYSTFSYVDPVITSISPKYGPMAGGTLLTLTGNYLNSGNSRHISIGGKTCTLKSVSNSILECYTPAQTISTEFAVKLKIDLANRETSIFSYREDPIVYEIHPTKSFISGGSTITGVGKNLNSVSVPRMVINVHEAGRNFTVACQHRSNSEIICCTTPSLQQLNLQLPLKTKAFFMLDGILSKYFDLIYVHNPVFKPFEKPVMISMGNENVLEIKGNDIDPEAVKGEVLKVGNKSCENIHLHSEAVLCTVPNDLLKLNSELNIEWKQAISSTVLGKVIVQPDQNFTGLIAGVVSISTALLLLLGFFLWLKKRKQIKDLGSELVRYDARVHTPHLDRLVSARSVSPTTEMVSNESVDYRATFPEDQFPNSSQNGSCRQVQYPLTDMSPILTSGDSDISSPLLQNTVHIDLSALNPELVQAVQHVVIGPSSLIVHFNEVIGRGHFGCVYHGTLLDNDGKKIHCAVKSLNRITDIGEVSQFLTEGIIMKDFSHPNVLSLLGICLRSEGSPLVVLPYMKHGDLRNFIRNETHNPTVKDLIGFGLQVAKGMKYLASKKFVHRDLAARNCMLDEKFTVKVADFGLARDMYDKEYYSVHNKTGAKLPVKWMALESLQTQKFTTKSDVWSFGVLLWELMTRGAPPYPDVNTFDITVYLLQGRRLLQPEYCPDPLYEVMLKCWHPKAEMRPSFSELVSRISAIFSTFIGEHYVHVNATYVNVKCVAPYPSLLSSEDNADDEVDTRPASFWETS

[6] = target: T3, Dual specificity mitogen-activated protein kinase kinase 3 (Homo sapiens) (UniProt P46734); assay: Selectivity interaction (ActivX KiNativ screen (kinase selectivity in THP-1 cell lysates)) EUB0000639a MAP2K3; type: subcellular; details: lysate
T3 sequence (whole entry): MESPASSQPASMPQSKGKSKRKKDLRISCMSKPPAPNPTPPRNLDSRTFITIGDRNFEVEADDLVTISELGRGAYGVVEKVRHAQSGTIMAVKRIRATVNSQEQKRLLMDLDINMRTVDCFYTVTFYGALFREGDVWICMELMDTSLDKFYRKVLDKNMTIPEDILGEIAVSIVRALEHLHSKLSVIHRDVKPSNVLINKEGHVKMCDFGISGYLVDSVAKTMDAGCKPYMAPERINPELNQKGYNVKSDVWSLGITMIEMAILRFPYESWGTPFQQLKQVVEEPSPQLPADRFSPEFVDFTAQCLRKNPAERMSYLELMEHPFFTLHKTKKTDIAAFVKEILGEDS

[7] = target: T4, Serine/threonine-protein kinase Nek11 (Homo sapiens) (UniProt Q8NG66); assay: Selectivity interaction (KinomeScan (DiscoverX)) EUB0000655a NEK11; details: at 10 µM
T4 sequence (whole entry): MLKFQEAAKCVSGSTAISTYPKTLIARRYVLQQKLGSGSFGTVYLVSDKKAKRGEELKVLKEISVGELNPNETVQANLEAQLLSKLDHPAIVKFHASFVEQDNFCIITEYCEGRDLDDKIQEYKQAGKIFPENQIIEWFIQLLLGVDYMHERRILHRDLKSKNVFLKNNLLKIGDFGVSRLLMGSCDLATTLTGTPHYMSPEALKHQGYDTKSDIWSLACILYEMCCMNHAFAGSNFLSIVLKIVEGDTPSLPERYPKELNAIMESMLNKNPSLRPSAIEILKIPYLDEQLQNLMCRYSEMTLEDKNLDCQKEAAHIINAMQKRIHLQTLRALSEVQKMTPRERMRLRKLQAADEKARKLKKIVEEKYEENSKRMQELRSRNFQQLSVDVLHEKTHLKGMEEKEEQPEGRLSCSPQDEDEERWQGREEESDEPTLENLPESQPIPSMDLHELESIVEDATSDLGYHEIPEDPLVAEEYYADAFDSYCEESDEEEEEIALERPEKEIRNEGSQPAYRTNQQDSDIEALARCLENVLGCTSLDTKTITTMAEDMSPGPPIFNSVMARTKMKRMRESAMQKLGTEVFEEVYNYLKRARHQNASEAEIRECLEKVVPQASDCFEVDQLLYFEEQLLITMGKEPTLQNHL

[8] = target: Ribosomal protein S6 kinase alpha-6 (Homo sapiens, UniProt Q9UK32); assay: Selectivity interaction (Ambit KINOMEscan and KiNATiv profiling in Jurkat cells) EUB0000090b RPS6KA6; type: cell-based; details: at 1 µM
Ribosomal protein S6 kinase alpha-6, sequence (Q9UK32 whole entry): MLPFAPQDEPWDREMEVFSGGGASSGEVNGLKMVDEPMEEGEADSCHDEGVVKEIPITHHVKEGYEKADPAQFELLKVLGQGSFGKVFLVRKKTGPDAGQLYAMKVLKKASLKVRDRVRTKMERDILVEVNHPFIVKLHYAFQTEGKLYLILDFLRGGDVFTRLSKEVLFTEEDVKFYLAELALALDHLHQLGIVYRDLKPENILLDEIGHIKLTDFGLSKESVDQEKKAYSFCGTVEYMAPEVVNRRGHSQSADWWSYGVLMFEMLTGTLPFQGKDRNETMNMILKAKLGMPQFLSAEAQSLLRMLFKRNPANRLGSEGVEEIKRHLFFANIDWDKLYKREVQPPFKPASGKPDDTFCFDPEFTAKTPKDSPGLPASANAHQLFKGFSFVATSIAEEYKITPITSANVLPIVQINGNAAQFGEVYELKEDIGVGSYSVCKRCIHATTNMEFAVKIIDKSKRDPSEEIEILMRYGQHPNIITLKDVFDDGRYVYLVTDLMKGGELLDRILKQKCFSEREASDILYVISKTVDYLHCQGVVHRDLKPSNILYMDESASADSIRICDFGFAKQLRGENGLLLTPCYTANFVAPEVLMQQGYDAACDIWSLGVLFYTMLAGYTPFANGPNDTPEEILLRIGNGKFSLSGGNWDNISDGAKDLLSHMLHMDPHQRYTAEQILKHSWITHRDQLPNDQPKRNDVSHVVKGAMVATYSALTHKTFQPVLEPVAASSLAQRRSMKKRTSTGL

Rho-associated protein kinase 1 (Homo sapiens), sequence (Q13464 2-1354 limits assumed): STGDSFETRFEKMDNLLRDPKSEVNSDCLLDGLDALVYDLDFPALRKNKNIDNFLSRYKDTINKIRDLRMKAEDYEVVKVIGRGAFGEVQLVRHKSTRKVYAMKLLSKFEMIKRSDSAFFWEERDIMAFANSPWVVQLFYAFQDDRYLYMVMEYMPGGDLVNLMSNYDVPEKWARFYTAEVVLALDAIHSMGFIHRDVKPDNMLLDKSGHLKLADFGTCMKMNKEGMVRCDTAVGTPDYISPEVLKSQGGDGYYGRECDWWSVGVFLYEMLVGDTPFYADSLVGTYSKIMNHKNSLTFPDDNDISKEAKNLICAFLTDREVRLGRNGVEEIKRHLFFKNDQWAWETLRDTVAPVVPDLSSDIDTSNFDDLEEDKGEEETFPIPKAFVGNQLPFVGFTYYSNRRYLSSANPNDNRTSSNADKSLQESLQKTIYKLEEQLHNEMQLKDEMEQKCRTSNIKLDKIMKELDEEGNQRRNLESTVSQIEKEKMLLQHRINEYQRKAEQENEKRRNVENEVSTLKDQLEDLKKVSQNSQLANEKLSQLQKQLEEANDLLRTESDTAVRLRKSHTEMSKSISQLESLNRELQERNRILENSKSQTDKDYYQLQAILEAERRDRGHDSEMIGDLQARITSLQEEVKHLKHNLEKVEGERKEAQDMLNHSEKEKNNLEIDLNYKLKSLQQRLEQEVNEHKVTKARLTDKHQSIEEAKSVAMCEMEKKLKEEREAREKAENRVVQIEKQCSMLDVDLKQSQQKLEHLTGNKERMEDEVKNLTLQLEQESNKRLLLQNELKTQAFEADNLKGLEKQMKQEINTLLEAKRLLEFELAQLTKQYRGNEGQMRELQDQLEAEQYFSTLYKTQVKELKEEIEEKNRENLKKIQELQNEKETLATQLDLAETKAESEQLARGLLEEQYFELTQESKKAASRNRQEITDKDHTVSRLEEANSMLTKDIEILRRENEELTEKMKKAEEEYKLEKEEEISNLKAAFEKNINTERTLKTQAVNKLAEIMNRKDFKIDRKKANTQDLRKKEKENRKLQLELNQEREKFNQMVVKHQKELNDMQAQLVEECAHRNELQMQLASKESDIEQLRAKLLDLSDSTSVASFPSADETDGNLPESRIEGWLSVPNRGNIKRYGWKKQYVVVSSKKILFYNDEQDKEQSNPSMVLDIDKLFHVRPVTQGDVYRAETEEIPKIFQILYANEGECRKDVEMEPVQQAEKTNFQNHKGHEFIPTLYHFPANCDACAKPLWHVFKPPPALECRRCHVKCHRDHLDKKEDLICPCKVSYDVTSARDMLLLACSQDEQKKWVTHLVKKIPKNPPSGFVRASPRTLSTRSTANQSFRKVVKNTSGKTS

Cc1cc(F)c(C(=O)Nc2cccc(-c3nncn3C(C)C)n2)cc1-n1cnc(C2CC2)c1
% of control [1]: 99%

Nc1cnc(N2CCc3cc(S(=O)(=O)Nc4c(F)cc(Cl)cc4F)cc(N4CCCC4=O)c32)nc1 [TP-020n]
% of control [2]: 79%

Cc1cc([C@@H](C)Nc2ccccc2C(=O)O)c2nc(N3CCOCC3)cc(=O)n2c1 [AZD-6482]
pIC50 [3]: 8.00

COc1cc(Nc2nc(C)cc(-c3cnn4nc(OC)ccc34)n2)cc(C(F)(F)F)c1
% of control [4]: 99%

CCc1cccc(CC)c1NC(=O)c1nn(C)c2c1CCc1cnc(Nc3ccc(C(=O)NC4CCN(C)CC4)cc3OC(F)(F)F)nc1-2
pIC50 [5]: < 5.00

CC[C@@H]1[C@H](F)C(=O)N[C@@H]1COc1nccc2cc(C(N)=O)c(OC)cc12 [ZIMLOVISERTIB]
% of inhibition ([6]; at 0.01 µM): 15.1%
% of inhibition ([6]; at 0.04 µM): -11.7%
% of inhibition ([6]; at 0.2 µM): -29.6%
% of inhibition ([6]; at 1 µM): -46.2%
% of inhibition ([6]; at 5 µM): -40.1%

CN(C)CCOc1ccc(-c2nc(-c3ccncc3)c(-c3ccc4c(c3)CC/C4=N\O)[nH]2)cc1
% of control [7]: 81%

CN(C)C/C=C/C(=O)Nc1ccc(C(=O)N2CCCC(Nc3ncc(Cl)c(-c4c[nH]c5ccccc45)n3)C2)cc1 (configuration not stated)
% of control [8]: 92%
